Patent US20190048052A1, “ANTI-MICROBIAL PEPTIDES AND COATINGS” (Board of Regents of the University of Nebraska, priority 2016, published 2019)
Residues, ends and D or L forms follow the SMILES beside them.

Assays:
proteinase K = biological target: T1, proteinase K (Parengyodontium album, UniProt P06873); test: Peptide stability to proteases (SDS-PAGE); type: in vitro ADME, fungal; details: peptide:protease 40:1, 24 hours, 37° C.
T1 construct: purchased Sigma or Fisher
Experimental: When degraded, no peptide band could be detected on a 5% stacking/18% resolving tricine gel after 2-4 hours incubation at 37° C. Briefly, a solution (100 μL) containing 250 μM peptide and 6.25 μM protease (Sigma or Fisher) in 10 mM PBS buffer (pH 8) was incubated at 37° C. (peptide/protease molar ratio, 40:1). Aliquots (10 μL) of the reaction solutions were taken at 0, 6, and 24 hours and immediately mixed with 10 μL of 2× SDS loading buffer followed by boiling for 5 minutes to stop the reaction. […] After electrophoresis, the gel was stained by Brilliant Blue R-250 (Fisher) and destained to view the peptide bands.

S. aureus USA300 [1] = test: Killing kinetics by colony counting; type: cell-based, Staphylococcus aureus; details: 10^5 CFU S. aureus USA300, colony counting
Experimental: Killing kinetic experiments were conducted similar to antibacterial assays described above with the following modifications (Wang et al. (2012) Antimicrob. Agents Chemother., 56:845-856). Aliquots of cultures (10^5 CFU) treated with TetraF2W peptides were taken at 15, 30, 50, 90, and 120 minutes, diluted 100-fold, and plated on Luria-Bertani (LB) agar plates. Colonies were counted after overnight incubation at 37° C.

S. aureus USA300 [2] = test: Propidium iodide membrane permeation; type: cell-based, Staphylococcus aureus
Experimental: Fluorescence spectroscopy was also used to follow bacterial killing. In brief, a serially diluted 10× peptide (10 μL) was made in 96-well coming COSTAR microtiter plates. Propidium iodide (2 μL) was added at 50 μM to each well which was finally incubated with S. aureus USA300 bacteria (88 μL at a final OD600 ˜0.1) with continuous shaking at 100 rpm, 37° C. in a FLUOstar® Omega (BMG LABTECH Inc, NC) microplate reader. The plates were read every 5 minutes for a total duration of 2 hours with excitation and emission wavelengths at 584 nm and 620 nm respectively. Plots were made using averaged readings from duplicated experiments after subtraction of the media control.

S. aureus USA300 [3] = test: Inhibition of biofilm growth (XTT); type: cell-based, Staphylococcus aureus; parameters: unit of the concentration uncertain
Experimental: (§1) Three types of experiments were conducted to evaluate the anti-biofilm activity of these peptides against S. aureus USA300, which was grown in tryptic soy broth (TSB) media in flat bottom, 96-well, polystyrene microtiter plates (Mishra et al. (2015) RSC Advances 5:59758-59769; Dean et al. (2011) BMC Microbiol., 11:114).
The second experiment evaluates the ability of the peptide to inhibit biofilm formation of S. aureus USA300 in 24 hours. In brief, S. aureus USA300 (10^5 CFU/mL) was made in fresh TSB media from exponentially growing bacteria. 180 μL of this bacterial culture was added to each well of the microtiter plates containing 20 μL of 10× peptide solution.

S. aureus USA300 [4] = test: Preformed biofilm disruption (XTT); type: cell-based, Staphylococcus aureus; details: 25 μM, 24 hour preformed biofilms
Experimental: as §1
The third experiment evaluates the ability of the peptide to disrupt the biofilms of S. aureus USA300 formed in 24 hours. S. aureus USA300 (10^5 CFU/mL) in fresh TSB media was made from an exponentially growing culture. 200 μL of this bacterial culture was added to each well of the microtiter plates. The plates are then incubated at 37° C. for 24 hours to allow biofilm formation. Media was then carefully removed followed by washing with sterile 1×PBS to remove any unattached bacteria. Solution containing 20 μL of 10× peptide solution and 180 μL of fresh TSB were added. The plates were again incubated at 37° C. for another 24 hours. The extent of peptide disruption of biofilms was quantified using the same XTT method described above.

human red blood cells = test: Hemolytic ability (Example 3); type: cell-based; details: concentration that causes 50% hemolysis
In short: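 Human red blood cells were washed three times in PBS, diluted to 2%, exposed to peptide for one hour at 37 °C and centrifuged. Hemoglobin in the supernatant was read at 545 nm. Percent lysis is relative to 1% Triton X-100 (100%) and PBS (0%).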

S. aureus USA300 [5] = type: cell-based, Staphylococcus aureus
In short: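 USA300 (10^5 CFU/mL) biofilms grown statically in TSB for 24 h at 37° C, washed, then exposed to peptide in fresh TSB for another 24 h at 37° C. Residual biomass read by crystal violet staining at 600 nm; viable cells by 10% XTT, 2 h at 37° C, absorbance 450 nm. Biofilm reduction expressed as percent of untreated wells.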

T1 sequence (P06873 106-384): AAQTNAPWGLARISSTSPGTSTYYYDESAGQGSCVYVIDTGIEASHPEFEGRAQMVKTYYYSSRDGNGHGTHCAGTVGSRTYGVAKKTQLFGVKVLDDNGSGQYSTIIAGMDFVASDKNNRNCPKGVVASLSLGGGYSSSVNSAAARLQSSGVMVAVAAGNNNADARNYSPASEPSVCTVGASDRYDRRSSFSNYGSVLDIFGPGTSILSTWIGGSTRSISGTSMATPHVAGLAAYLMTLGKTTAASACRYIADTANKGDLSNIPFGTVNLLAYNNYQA

SMILES | stability to fungal proteinase K (proteinase K) | time in which all the bacteria were killed (S. aureus USA300 [1]) [min] | propidium iodide fluorescence change after treatment (S. aureus USA300 [2]) | inhibition of biofilm growth (S. aureus USA300 [3]; 6.25 (unit uncertain) as printed) | inhibition of biofilm formation (S. aureus USA300 [3]; 25 (unit uncertain) as printed) | disruption of preformed biofilms (S. aureus USA300 [4]) [%] | HL50 (human red blood cells) [µM] | killing in preformed biofilms (XTT) (S. aureus USA300 [5]; 6.2 μM) | killing in preformed biofilms (XTT), words (S. aureus USA300 [5]; 12.5 μM)
CC[C@H](C)[C@H](NC(=O)[C@H](CCCCN)NC(=O)[C@H](CCCNC(=N)N)NC(=O)[C@H](CC(C)C)NC(=O)[C@H](Cc1c[nH]c2ccccc12)NC(=O)[C@H](Cc1c[nH]c2ccccc12)NC(=O)[C@@H](N)Cc1c[nH]c2ccccc12)C(=O)N[C@@H](Cc1c[nH]c2ccccc12)C(N)=O [TetraF2W-RK, WWWLRKIW] (H-WWWLRKIW-NH2; N-terminus assumed) | completely degraded |  |  |  |  |  |  |  | 
CC[C@H](C)[C@H](NC(=O)[C@H](CCCNC(=N)N)NC(=O)[C@H](CCCNC(=N)N)NC(=O)[C@H](CC(C)C)NC(=O)[C@H](Cc1c[nH]c2ccccc12)NC(=O)[C@H](Cc1c[nH]c2ccccc12)NC(=O)[C@@H](N)Cc1c[nH]c2ccccc12)C(=O)N[C@@H](Cc1c[nH]c2ccccc12)C(N)=O [TetraF2W-RR, WWWLRRIW] (H-WWWLRRIW-NH2; N-terminus assumed) |  | 90 | most effective in damaging the membranes | actively inhibited biofilm growth | completely inhibited | ~77 | 35 | only the WT was active | nearly all S. aureus USA300 was eliminated
